From a melting point compilation (Tetko et al.; mined from patent text by program, amines drawn as free bases though some values may be those of a salt)

| SMILES | melting point |
| --- | --- |
| Cc1ccc(S(=O)(=O)N2[C@H](CCCc3nnnn3C)CC[C@@H]2c2ccc(F)cc2)cc1 (racemic) | 153 °C |
| Fc1ccc(Nc2ncnc3cnc(N4CCC(N5CCNCC5)CC4)nc23)cc1Cl | 178 to 180 °C |
| COc1ccc(CSC(C)(C)C2(c3ccc(F)cc3F)CO2)cc1 (configuration not stated) | 55 to 56 °C |
| NNC(=O)c1ccc2[nH]ncc2c1 | 251 to 252 °C |
| O=c1[nH]c(N[N+](=O)[O-])ncc1Cc1ccco1 | 183 to 184 °C |
| O=C(O)N[C@@H](CC1CCCCC1)[C@@H](O)[C@@H]1CCCS1 | 118 to 119 °C |
| CSC(CC(=O)O)c1ccc(C(F)(F)F)cc1 (configuration not stated) | 106 to 108 °C |
| CSc1ccc(C2OC(=O)NC2O)cc1 (configuration not stated) | 130 to 131 °C |
| OCCCc1cn(-c2ccc(C(F)(F)F)cn2)nc1C1CCCCC1 | 106 to 107 °C |
| O=C(/C=C/c1ccn(S(=O)(=O)c2ccc(CN3CCOCC3)cc2)c1)NO | 168 to 170 °C |
| O=P1(c2ccc(F)cc2)c2ccccc2CN1c1ccc(Br)cc1 (configuration not stated) | 201 to 205 °C |
| COC1=C(OC)C(=O)C2=C(CCC(CCOc3cccnc3)CC2)C1=O | 80 to 82 °C |
| Cc1nn2ccccc2c1C1=NNC(=O)CC1C (configuration not stated) | 146 to 147 °C |
| CCn1ncc2c3onc(-c4cccc(C)c4)c3cnc21 | 122 to 123 °C |
| O=S(=O)(Cl)c1ccc2oc(-c3ccncc3)cc2c1 | 210 °C |
| N#CCN1CCN(c2n[nH]c3ccccc23)CC1 | 121 to 123 °C |
| CCOCc1cc(CCCOc2c(C)cc(-c3noc(C(F)(F)F)n3)cc2C)on1 | 24 to 25 °C |
| CC(=O)NC(Cc1ccccc1)C(=O)NC(C)C(=O)O (configuration not stated) | 128 to 132 °C |
| COc1nnc2cc(Cl)ccc2n1 | 122 °C |
| Cc1cc(-c2ccccc2)nnc1NN | 162 °C |
| CCOC(=O)c1ccc(C(CCc2cc(Cl)ccc2N2CCCCC2)C(N)=O)cc1 (configuration not stated) | 95 to 97 °C |
| Cc1ccc(-c2ccc3c(=O)ccoc3c2)cc1 | 159 to 160 °C |
| Cc1nc2cc3c(cc2o1)C1(CO3)C(=O)Nc2ccccc21 (configuration not stated) | 242 to 244 °C |
| CN1C(=O)C(c2cccc(-c3cccnc3F)c2)(c2cc(C=NO)n(CCCF)c2)N=C1N (configuration not stated) | 119 to 123 °C |
| COc1cc(C(=O)CBr)cc(C#N)c1OC | 138 to 141 °C |
| CC(Oc1ccc(Oc2cnc3cc(Cl)ccc3n2)cc1)C(=O)Nc1ccc(OC(F)(F)C(Cl)(Cl)Cl)cc1 (configuration not stated) | 139 to 141 °C |

| SMILES | melting point |
| --- | --- |
| Fc1ccccc1C1=NCCN(C2=NCCO2)c2ccc(Cl)cc21 | 162 to 164 °C |
| COC(=O)C=CC=Cc1ccccc1CNC(=O)OC(C)(C)C | 96 to 97.5 °C |
| O=C(O)c1ccc(NCCc2ccccc2)cc1 | 123 to 125 °C |
| N#CC1CN1C(=O)NC(=O)CCl (configuration not stated) | 152 to 155 °C |
| COc1ccccc1NC(=O)Nc1nc(Oc2ccc3ccccc3c2)nc(N2Cc3ccccc3CC2C(=O)O)n1 (configuration not stated) | 230 to 235 °C |
| CN(c1ccc(Cl)cc1)c1nc(=O)c2ccc(-c3ccccc3)nc2s1 | 279 to 280 °C |
| CCNC(=O)NS(=O)(=O)c1cc2c(cc1OC)OCC(NC(=O)c1cc(Cl)ccc1OC)C2 (configuration not stated) | 233 to 234 °C |
| Cn1cc(C(F)(F)F)c(C(=O)O)c1F | 190 to 191 °C |
| Cc1ccc(N(Cc2cccnc2)S(C)(=O)=O)cc1 | 143 to 146 °C |
| Cc1cc2c(cc1OCCn1ccnc1)CC/C(=C\c1cccs1)C2=O | 150 to 151 °C |
| COc1ccc(-c2cc(C)c(=O)[nH]n2)cc1 | 265 to 267 °C |
| COc1cc2c(c3c1OC(C)(C)C3)C(c1cccc(NC(=O)c3ccc(Cl)nc3Cl)c1)=NC(C)(C)C2 | 130 to 132 °C |
| Cc1ccccc1C(=O)Nc1ncc([N+](=O)[O-])s1 | 228 to 230 °C |
| O=C(O)C[C@H]1CCCCN1C(=O)C=Cc1c(-c2ccccc2)nn2ccccc12 | 165 to 166 °C |
| Cn1c(CC#N)ccc1C(=O)c1cccc(Cl)c1 | 122 to 127 °C |
| CCCCCCCN(CCO)c1ccc2c(c1)Oc1cc(=C(C#N)C#N)c3ccccc3c1=N2 | 155 to 157 °C |
| Cc1cc2c(=O)[nH][nH]c(=O)c2n1CC(C)C | 278 to 282 °C |
| Cn1cnnc1NCCCOc1cccc(CN2CCCCC2)c1 | 118 to 119 °C |
| CCOC(=O)CCCCCOC1OC(COC(C)=O)C(OC(C)=O)C(OC(C)=O)C1NC(C)=O (configuration not stated) | 101 to 102 °C |
| CCOC(=O)CCCOc1ccc(CC(C)(C)N)cc1 | 103 to 105 °C |
| Sc1nccn1Cc1ccc(Cl)cc1 | 187 to 189 °C |
| CCN1C(=O)Cc2cc(C(=O)c3cccs3)ccc21 | 158 to 160 °C |
| Nc1ccc([N+](=O)[O-])c(Cl)c1Cl | 170 to 174 °C |
| Cc1cc(-c2cccc(C(F)(F)F)c2)nn2cnnc12 | 181 to 183 °C |
| Nc1ncc(CCCCc2ccccc2)c(N)n1 | 126 to 127 °C |
| N#CSc1nc(C(F)(F)C(F)F)nc2ccccc12 | 112 to 114 °C |

| SMILES | melting point |
| --- | --- |
| COc1cc(N2C(=O)c3ccccc3C2=O)c2nccc(C)c2c1Oc1cccc(C(F)(F)F)c1 | 228 to 230 °C |
| Nc1ccc([N+](=O)[O-])cc1C(=O)c1ccccc1Cl | 138 to 139 °C |
| O=C(CCl)NC(=O)Nc1cc(C(F)(F)F)cc(C(F)(F)F)c1 | 170 °C |
| CC(C)(C)Sc1c(CC(C)(C)C(=O)O)n(Cc2ccc(Cl)cc2)c2ccc(OCc3cc4ccccc4cn3)cc12 | 228 °C |
| CCOC(=O)C1=C(C)NC(=S)N(C(=O)OCC)C1c1ccccc1[N+](=O)[O-] (configuration not stated) | 130 to 132 °C |
| CC(=O)OC1CSC(Oc2ccnc(-c3cccnc3)c2)C(OC(C)=O)C1OC(C)=O (configuration not stated) | 185 °C |
| COc1ccccc1N1CCCN(c2ccnc3sc(C(N)=O)c(N)c23)CC1 | 179 to 184 °C |
| CN(C[C@@H](CCO)c1ccc(Cl)c(Cl)c1)C(=O)c1ccccc1 | 123 to 125 °C |
| Nc1ncccc1-c1nc2cc(-c3cccnc3)cnc2n1-c1ccc(CNS(=O)(=O)C2CC2)cc1 | 197 to 199 °C |
| COc1ccc(-c2c3c(cc4ccc(OC)cc24)C(=O)NC3)cc1 | 290 to 292 °C |
| CCn1c(N)c(-c2nccn2COCC[Si](C)(C)C)c(=O)c2ccc(Cl)nc21 | 90 °C |
| O=c1[nH]c2ncc(-c3ccc(-c4cc[nH]n4)cc3)nc2n1CC1CCCCC1 | 292 to 294 °C |
| COCC1CN(c2ccc3cc(OC(C)=O)ccc3c2)C(=O)O1 (configuration not stated) | 110 to 112 °C |
| COc1ccccc1CNc1cccnc1Cl | 121 to 125 °C |
| CCOC(=O)N1CCC(C(=O)Cl)CC1 | 96 to 98 °C |
| Cc1cc(-c2nc3ccccc3s2)ccc1N | 193 to 195 °C |
| COC(=O)c1nsc(S)n1 | 126 to 127 °C |
| CNC(=O)N(Cc1ccc(C)c(C)c1)NC(=O)OC(C)(C)C | 99.7 to 105 °C |
| CC1(C)Oc2ccc(C#N)cc2[C@@H](NC(=O)Nc2cccc(-c3cnc[nH]3)c2)[C@@H]1O | 170 to 180 °C |
| O=C(CCC12CCC(=O)N1C(=O)CC2)OCc1ccccc1 | 80 to 82 °C |
| Cc1cccc(C)c1Sc1cc(C(C)(C)C)cc(C(C)(C)C)c1O | 101 to 102 °C |
| CCCCCCc1cn(CC2OC(n3cnc4c(NCc5ccc(OC)cc5)ncnc43)C(O)C2O)nn1 (configuration not stated) | 101 to 102 °C |
| CC(C)(N)CNC(=O)CNC(=O)Cc1ccccc1 | 150 to 155 °C |
| O=C(O)Cc1cccc(-c2cccc(COC3OC(CO)C(O)C(O)C3O)c2)c1 (configuration not stated) | 74 to 75 °C |
| Nc1sc2c(c1C(=O)c1ccccc1)CCN(C(=O)OCc1ccccc1)C2 | 138 to 140 °C |
| CNC(=O)N1CCC(Oc2ccc(C(F)(F)F)cc2)(c2ccccc2)CC1 | 118 to 120 °C |

| SMILES | melting point |
| --- | --- |
| CN1CCC(n2cc(C3=C(c4cn(C)c5ccccc45)C(=O)NC3=O)c3ccccc32)CC1 | 316 to 318 °C |
| CSC1=Nc2ccc(Cl)cc2C(=O)N(C)C1 | 124 to 127 °C |
| COc1ccc(-c2ccc3c(Br)c(OC)ccc3c2)cc1 | 172 to 174 °C |
| CNC(=O)CC1=CC2(CCCC2)c2ccc(Cl)cc21 | 190 °C |
| Nc1cccc(-c2ccc(CCCN3CCN(CCc4ccccc4)CC3)cc2)n1 | 125 to 140 °C |
| OCCNc1nc(NCc2ccccc2)c2ncc(Cl)cc2n1 | 106 to 107 °C |
| COc1cccc(CC(=O)NCc2ccccc2Cl)c1 | 89 to 91 °C |
| O=C(O)CSc1nc(-c2ccccc2)ns1 | 97 °C |
| COc1ccc(-c2[nH]nc3c2C(=O)c2c(NC(=O)CN4CCC(N(C)C)CC4)cccc2-3)cc1 | > 300 °C |
| Oc1cc(Br)c(-c2c3ccccc3c(Br)c3sc4ccccc4c23)cc1O | 138 to 140 °C |
| CN(C(=O)OC(C)(C)C)c1cc(Oc2ccc(-c3ccc(O)cc3)cc2)ccc1N | 89 to 91 °C |
| CN(C)CC(=O)N1CCN(Cc2ccc3c(c2)Cc2c(-c4ccsc4)n[nH]c2-3)CC1 | 190 to 192 °C |
| CCCCc1nc(=O)c2cc(C3=NN(C(c4ccccc4)(c4ccccc4)c4ccccc4)[C@H]4C(=O)N(C)C(=O)[C@@H]34)ccc2[nH]1 (relative stereo) | 182 °C |
| COC[C@H](C)N1CCc2sc(Nc3ncc(F)cn3)nc2-c2c[nH]nc21 | 249 to 251 °C |
| Nc1nc(Nc2ccccc2)c2ncn(C3CC(F)C(CO)O3)c2n1 (configuration not stated) | 193 to 194 °C |
| COc1nc(C)nc(NC(=O)NS(=O)(=O)c2cccnc2OCC2CC2)n1 | 165 to 167 °C |
| CCCSc1ncc(C(=O)O)n1Cc1ccccc1Cl | 158 to 160 °C |
| O=C(CCCc1ccccc1)OCCCCCCCCCCCCNCC(O)c1ccccc1 (configuration not stated) | 73 to 74 °C |
| Cc1cc(C#N)c(C)c(C(=O)Nc2ccc(F)cn2)n1 | 196 °C |
| CC(=O)c1cccc(C(=O)N2CCN(C(=O)c3cc(C(F)(F)F)cc(C(F)(F)F)c3)[C@H](Cc3ccc(C)c(C)c3)C2)c1 | 156 to 157 °C |
| C=CC1CCC2C3CCC4=CC(=O)CCC4(C)C3CCC12C (configuration not stated) | 122 to 124 °C |
| COc1cc(OC)nc(C(C)(C#N)c2cccc(Cl)c2)n1 (configuration not stated) | 89 to 93 °C |
| Cc1ccc(C2c3c(C)c(N4CCN(c5cc(C)cc(C)c5)CC4)c(C)c(C)c3OC2(C)C)cc1 (configuration not stated) | 147 to 149 °C |
| CCC(C#N)(C(=O)N1CCOCC1)c1ccccc1 (configuration not stated) | 88 to 90 °C |
